How the values were obtained:
Assay in all cases: RT-qPCR mRNA expression in dHepaRG cells
Format in all cases: cell-based, human
HMGCS mRNA = test system: HMGCS mRNA
Description: Three concentrations were selected for each compound (non-toxic, non-toxic/slightly toxic and toxic). The cholesterol level of the dHepaRG cells was measured after a multiple exposure of the highest non-toxic concentrations of tested compounds. […] The expression changes of genes and proteins related to cholesterol metabolism were measured in both single and multiple exposure experiments.
All treatments were performed in triplicates and every experiment was performed three times. The cells were washed twice with ice cold phosphate-buffered saline (PBS), scrapped and stored at −80 °C until use. Total RNA from cells was isolated using TriReagent according to the manufacturer’s instructions (Biotech, Prague, Czech Republic). The purified RNA was dissolved in 40 µL of diethyl pyrocarbonate (DEPC)-treated water (0.01% DEPC in HPLC water, autoclaved) and stored at −80 °C. The measurement of absorbance at 260 and 280 nm using the NanoDrop ND-1000 UV–VIS Spectrophotometer (Thermo Fisher Scientific, Pardubice, Czech Republic) was used to determine RNA yields and purity. Subsequently, the RNA (4 µg) was treated with 2 U of DNase I (New England Biolabs, Ipswich, MA, USA) in a final volume of 30 µL for 25 min at 37 °C, 1.5 µL of 0.1 M ethylenediaminetetraacetic acid was added and the DNAse was inactivated by heat (5 min at 75 °C). The solution was diluted to a concentration of 0.1 µg/µL. The DNAse treated RNA was stored at −80 °C until further analyses. The first strand cDNA was synthesized from 800 ng of total RNA and 1 µL of 50 µM random hexamers (Generi Biotech, Hradec Kralove, Czech Republic) using ProtoScript II reverse transcriptase (New England Biolabs, Ipswich, MA, USA). After the initial heat denaturation of total RNA (65 °C for 5 min), 4 µL of 5× ProtoScript II RT Reaction Buffer, 2 µL of 10× dithiothreitol (DTT), 2 µL of deoxynucleotide (dNTP) Mix 5 mM, 3.5 µL of H2O, and 0.5 µL of ProtoScript II 200 U/µL were added and mixed by pipetting. The reactions (20 µL) were incubated for 10 min at 25 °C, for 50 min at 42 °C, and for 5 min at 80 °C. The obtained cDNAs were diluted 1:6 by DEPC water. The qPCR analyses were carried out using QuantStudio 6 Flex (Applied Biosystems, Foster City, CA, USA) with SYBR green I (Xceed qPCR SG Mix, Institute of Applied Biotechnologies, Prague, Czech Republic) detection according to the manufacturer’s protocol. […] Fluorescence data were recorded at the end of each amplification step. Relative expression levels of the target genes were calculated as fold changes in triplicates for each group using the 2^−ΔΔCt method [28] by normalization to the geometric mean of the Ct values of Sdha and Ywhaz, which were used as reference genes.

ALB mRNA = details: after 6 h of exposure
Description: (§1) Three concentrations were selected for each compound (non-toxic, non-toxic/slightly toxic and toxic). […] The expression changes of genes and proteins related to cholesterol metabolism were measured in both single and multiple exposure experiments.
(§2) All treatments were performed in triplicates and every experiment was performed three times. The cells were washed twice with ice cold phosphate-buffered saline (PBS), scrapped and stored at −80 °C until use. Total RNA from cells was isolated using TriReagent according to the manufacturer’s instructions (Biotech, Prague, Czech Republic). The purified RNA was dissolved in 40 µL of diethyl pyrocarbonate (DEPC)-treated water (0.01% DEPC in HPLC water, autoclaved) and stored at −80 °C. The measurement of absorbance at 260 and 280 nm using the NanoDrop ND-1000 UV–VIS Spectrophotometer (Thermo Fisher Scientific, Pardubice, Czech Republic) was used to determine RNA yields and purity. […] Fluorescence data were recorded at the end of each amplification step. Relative expression levels of the target genes were calculated as fold changes in triplicates for each group using the 2^−ΔΔCt method [28] by normalization to the geometric mean of the Ct values of Sdha and Ywhaz, which were used as reference genes.

A1AT mRNA = details: after 24 h
Description: as §1, §2

Row | SMILES | HMGCS mRNA level (HMGCS mRNA; multiple exposure: four applications every 24 h, analyzed 12 h after the last, 30 μM ATL, 100 μM GER, 20 μM LOV) | HMGCS mRNA level (HMGCS mRNA; single exposure, the highest concentration, 6-h exposure) | HMGCS mRNA level (HMGCS mRNA; single exposure, the highest concentration, 12- and 24-h exposure) | ALB mRNA expression (ALB mRNA) | A1AT mRNA expression (A1AT mRNA)
1 | C=C1C(=O)O[C@@H]2C[C@@]3(C)CCC[C@H](C)C3=C[C@H]12 [ATL, alantolactone] | induced | induction | decreased level | – | –
2 | CC(C)=C1C/C=C(\C)CC/C=C(\C)CC1=O [GER, germacrone] | – | – | – | induced | inhibited

Reference: paper PMC7353089, “The Hepatotoxicity of Alantolactone and Germacrone: Their Influence on Cholesterol and Lipid Metabolism in Differentiated HepaRG Cells” (Nutrients, 2020)
